# Reference: PubChem BioAssay AID1508591
# Conditions: rat; liver microsomes; pH 7.4; 15.0 min; 1.0 µM
row,SMILES,half-life
1,CC1=C(C(=O)Nc2ccccc2C)C(c2ccccc2Br)N=C(Nc2nc3ccccc3o2)N1 (stereo not given),12 min
2,Cc1nn2c(c1-c1ccccc1-c1ccccc1)N(CCC(C)C)CCC2,1.31 min
3,Cc1ccc2oc3c(c(=O)c2c1)C(c1cccc(O)c1)N(CCCN1CCOCC1)C3=O (stereo not given),9.55 min
4,CC(C)(C)OC(=O)N[C@@H](Cc1ccc(O[S+](=O)([O-])c2cccc3cnccc23)cc1)C(=O)Nc1ccc(-c2ccccc2)cc1,2.55 min
5,NC(=O)c1sc2nc3c(c(-c4cccs4)c2c1N)CCCC3,2 min
6,O=c1[nH]c(C2CCCN(CC3CCCCC3)C2)nn1-c1ccc(Cl)cc1 (stereo not given),> 30 min
7,Cc1ccccc1N(C)C1CN([S+](=O)([O-])c2cccc(C(F)(F)F)c2)C1,1.98 min
8,CN1C[C@@H]2C[C@H]1CN2c1cc2c(cc1F)c(=O)c(C(=O)O)cn2C1CC1,> 30 min
9,CC(C)(C)CN1CCNc2cc(Nc3ccccc3)ncc2C1,1.64 min
10,CC(=O)Nc1ccc(N[S+](=O)([O-])c2cccc(NC(=O)c3[nH]c(C)c(C(C)=O)c3C)c2)cc1,> 30 min
11,NC(=O)C1CCN(c2nc(-c3cccs3)cs2)CC1,3.98 min
12,CC(C)(C)n1cnc2cc(C(=O)N3CCCCC3)ccc21,9.7 min
13,O=C(O)[C@H]1O[C@H]1C(=O)O,14.7 min
14,Cc1cccc2oc(NC3=NC(c4[nH]ncc4Cl)C4=C(CCCC4=O)N3)nc12 (stereo not given),10.6 min
15,COc1ccccc1CNC(=O)CCCn1nc(C)c2c(C)n(-c3ccc(C)cc3)nc2c1=O,3.45 min
16,FC(F)(F)c1ccc(N2CCN(C(=S)Nc3ccccn3)CC2)cc1,> 30 min
17,CCN1C(=O)c2ccccc2[S@](=O)c2ccc(C(=O)NCc3ccc(F)cc3)cc21,12 min
18,Cc1cc(C)nc(NC(=S)N2CCN(Cc3ccc(C(F)(F)F)cc3)CC2)c1,> 30 min
19,COc1ccc(Cl)cc1NC(=O)c1sc2nc3c(cc2c1N)N1CCC3CC1,26.4 min
20,CCOc1ccc(CCNC(=O)c2cc3ccccc3n2Cc2cccc(C)n2)cc1OCC,1.6 min
21,Cc1ccnc(NC(=S)N2CCN(c3cccc(C(F)(F)F)n3)CC2)c1,15 min
22,CC1(C)CC(=O)C2=C(C1)NC(Nc1nc3ccccc3o1)=NC2c1ccccc1Cl (stereo not given),11 min
23,CCOc1ccc(OCC)c(NC(=O)C(NS(=O)(=O)c2ccc(Br)s2)c2ccccc2)c1 (stereo not given),2.04 min
24,CCN(CC)S(=O)(=O)c1ccc(N2CCOCC2)c(NC(=O)c2[nH]c(C)c(C(C)=O)c2C)c1,5.49 min
25,O=C(Nc1cccc(C(F)(F)F)c1)Nc1cc(S(=O)(=O)NC2CC2)ccc1-c1ccsc1,5.65 min
26,COc1ccc(CCN2CCC(Nc3nc4ccccc4n3Cc3ccc(F)cc3)CC2)cc1,4.18 min
27,CC(C)c1nc(CN(C)C(=O)N[C@H](C(=O)N[C@@H](Cc2ccccc2)C[C@H](O)[C@H](Cc2ccccc2)NC(=O)OCc2cncs2)C(C)C)cs1,22.1 min
28,O=C(Nc1cccc(OC(F)(F)F)c1)c1cc(-c2ccc[nH]2)n[nH]1,20.9 min

row,SMILES,half-life
1,Cc1cc(C)nc(NC(=S)N2CCN(c3ccncc3)CC2)c1,> 30 min
2,Cc1ccccc1CSc1nc2ncc(Br)cc2[nH]1,7 min
3,O=[S+]([O-])(Nc1ccc(C2CCNCC2)cc1)c1ccc(NCc2ccc(Br)cc2O)cc1,> 30 min
4,Clc1ccc2ncc(-c3cccc(NC4CCNCC4)n3)n2c1,> 30 min
5,Cn1ncnc1[C@H]1c2n[nH]c(=O)c3cc(F)cc(c23)N[C@@H]1c1ccc(F)cc1,> 30 min
6,CCOC(=O)C1CCN(C(=O)C(C)(C)NC(=O)Nc2ccc(Cl)cc2Cl)CC1,1.36 min
7,CCOc1ccccc1C(=O)Nc1cccnc1C(=O)Nc1cccc(S(=O)(=O)C(F)(F)F)c1,> 30 min
8,CCOc1ccc(NC(=O)CC2C(=O)N(c3ccc(F)cc3)C(=O)N2CCc2sccc2C)cc1 (stereo not given),1.33 min
9,O=C(O)c1ccnc2cc(-c3nc4ccccc4n3CCN3CCCCC3)sc12,> 30 min
10,CCOc1ccc(CCNC(=O)c2cc3sccc3n2CCN(C)C)cc1OCC,1.6 min
11,O=C(c1nc(-c2cccnc2)c2ccccn12)N1CCOCC1,> 30 min
12,Cc1ccnc(NC(=S)N2CCN(c3ccc(N)cc3)CC2)c1,> 30 min
13,Cn1cc(C2=C(c3cn(CCCSC(=N)N)c4ccccc34)C(=O)NC2=O)c2ccccc21,4.4 min
14,CCOC(=O)c1ccc(NC(=O)c2sc3nc4c(cc3c2N)N2CCC4CC2)cc1,1.21 min
15,CCOC(=O)c1ccc(NC(=O)CSc2nc3c(cc2C#N)N2CCC3CC2)cc1,4.26 min
16,O=C1Nc2ccccc2C1Cc1cc(Cl)c(O)c(Cl)c1 (stereo not given),24 min
17,O=C(COc1ccccc1)NCC(c1cccs1)S(=O)(=O)c1ccc(Cl)cc1 (stereo not given),1.44 min
18,O=C(NC1CC1)c1nc(-c2cccnc2)c2ccccn12,21.8 min
19,COc1ccc(NC(=O)c2[nH]c(C)c(C(C)=O)c2C)cc1S(=O)(=O)Nc1cccc(C#N)c1,15 min
20,CCOc1ccc(CCNC(=O)c2cc3ccccc3o2)cc1OCC,1.6 min
21,COc1ncccc1-c1cc2[nH]ccc2c(C(=O)NCc2c(C)cc(C)[nH]c2=O)n1,5.48 min
22,NC(=O)C1CCN(c2nc(-c3ccccc3-c3ccccc3)cs2)CC1,2.45 min
23,COC(=O)[C@]12CCC(C)(C)C[C@@H]1[C@@H]1C(=O)C=C3[C@@]4(C)C=C(C#N)C(=O)C(C)(C)[C@@H]4CC[C@@]3(C)[C@]1(C)CC2,5.97 min
24,CC(=O)c1c(C)[nH]c(C(=O)Nc2cccc(S(=O)(=O)Nc3ccc(Br)cc3)c2)c1C,18 min
25,Cc1ccc(-n2c(C)cc(-c3nnc4n3CCCCC4)c2C)cc1,1.62 min
26,Cc1ccc(S(=O)(=O)Nc2ccccc2C(=O)Nc2nc(-c3ccccc3)c(C)s2)cc1,6.3 min
27,O=C(Cc1ccc(-c2csc(Nc3ccc(F)cc3)n2)s1)N1CCOCC1,> 30 min

# Further lines, results first:
row,half-life,SMILES
1,2.5 min,Cc1ccc(S(=O)(=O)Nc2cc(C)ccc2C(=O)Nc2nc(-c3ccccc3)cs2)cc1
2,20 min,O=S(=O)(Nc1cccc(C(F)(F)F)c1)c1ccc(NS(=O)(=O)c2ccc3c(c2)OCCO3)cc1
3,15.9 min,Cc1ccc2[nH]c(-c3ccccc3)cc(=O)c2c1
4,> 30 min,O=C(NCCCn1ccnc1)c1nc(-c2ccccc2)cc2[nH]ccc12
5,> 30 min,O=C(Nc1ncc(Cc2ccc(C(F)(F)F)cc2)s1)c1ccc(-c2cccnc2)o1
6,3.23 min,Oc1c(CN2CCN(c3ccccn3)CC2)cc(Cl)c2cccnc12
7,3.46 min,CC(C)Oc1cccc(C2CC(=O)Nc3cc4c(cc32)OCO4)c1 (stereo not given)
8,5.62 min,Cc1ccccc1C(C(=O)NC1CCCCC1)N(C(=O)Cn1ccnc1C)c1cccc(F)c1 (stereo not given)
9,1.66 min,CCOc1ccc(CCNC(=O)c2cccc(C(=O)c3ccccc3)c2)cc1OCC
10,1.5 min,CCCc1ccc(NC(=O)c2ccc3c(c2)NC(=O)CS3)cc1
11,> 30 min,COc1ccc2cc1Oc1ccc(cc1)C[C@@H]1c3c(cc(OC)c4c3Oc3cc5c(cc3O4)CCN[C@H]5C2)CCN1C
12,9.7 min,COc1ccc(Nc2nc(-c3ccncc3)nc3ccccc23)cc1F
13,1.8 min,CCOc1ccc(CCNC(=O)c2cc3sccc3n2Cc2ccccc2)c(F)c1OCC
14,1.18 min,Cc1ccc(CN2C(=O)C(O)(CC(=O)c3ccc(C)cc3)c3ccccc32)cc1 (stereo not given)
15,> 30 min,Fc1cc(Nc2nc(-c3ccncc3)nc3ccccc23)ccc1-c1cc(F)c(F)c(F)c1
16,> 30 min,COc1ccc(-c2cc(C)nc3c(-c4ccc(OC)c(OC)c4)c(C)nn23)cc1
17,> 30 min,COc1cc(-c2ccnc3c2c(C)nn3-c2ccc(C(F)(F)F)cc2)ccc1O
18,14 min,Cc1ccc(-c2cc(C(=O)Nc3cccc(S(=O)(=O)Nc4nccs4)c3)c3ccccc3n2)cc1C
19,3.13 min,Cc1ccc(NS(=O)(=O)c2ccc3c(c2)NC(=O)CO3)cc1C
20,4.29 min,c1c[nH]c(C2CCN(c3ncc(-c4ccc5c(c4)OCCCO5)s3)CC2)n1
21,5.68 min,COc1ccccc1Nc1ccnc(N2CCN(C(=O)c3ccc(C)cc3)CC2)n1
22,2.07 min,CC(C)CNc1ccnc(NCc2csc(-c3ccccc3)n2)n1
23,> 30 min,COc1ccc(Nc2ncnc3c2cnn3-c2ccc(C)cc2)cc1Cl

row,half-life,SMILES
1,13.6 min,CCOc1ccc(C2c3c(oc4ccc(C)cc4c3=O)C(=O)N2CCCN(C)C)cc1 (stereo not given)
2,6.64 min,CNC(=O)c1cc(Oc2ccc(NC(=O)Nc3cc(C(C)(C)C)nn3-c3ccc4ncccc4c3)c(F)c2)ccn1
3,2.7 min,COc1cccc(CNc2ccc(S(=O)(=O)Nc3ccc(-c4ccccc4)cc3)cc2)c1O
4,19 min,FC(F)(F)Oc1cccc(Nc2nc(-c3ccncc3)nc3ccccc23)c1
5,> 30 min,NS(=O)(=O)c1ccc(Cc2c(-c3cccc(-c4ccccc4)c3)nn(-c3nc(C(=O)O)cs3)c2CC2CC2)cc1
6,1.2 min,COc1ccc(CN2C(=O)[C@@H]3C[C@@H](CN3Cc3cccs3)Oc3ccccc32)cc1
7,2.16 min,Cc1ccc(CN2CCOC[C@H]2c2ncc(-c3cccc(F)c3)[nH]2)cc1
8,7.3 min,Cc1ccc(-c2csc(NC(=O)c3ccncc3NS(=O)(=O)c3ccc(C)cc3)n2)cc1
9,2.45 min,O=C(CCS(=O)(=O)c1nc(-c2cccs2)cc(C(F)(F)F)n1)Nc1ccc(OC(F)(F)F)cc1
10,19 min,COc1cccc(CC(=O)Nc2nc(-c3ccc4c(c3)CCN4C(=O)c3ccccc3C)c(C)s2)c1
11,21 min,CCOc1ccc(CNc2ccc3c(c2)ncn3C)cc1
12,8.9 min,COc1cccc(O)c1CNc1ccc(S(=O)(=O)Nc2nccs2)cc1
13,24.9 min,c1cn2cc(-c3ccc4cn[nH]c4c3)nc(Nc3ccc(N4CCOCC4)cc3)c2n1
14,> 30 min,Fc1ccc(-c2ccc(Nc3nc(-c4ccncc4)nc4ccccc34)cc2F)cc1
15,2 min,O=C(Nc1nc(-c2ccccc2)cs1)c1ccncc1NS(=O)(=O)c1ccc(-c2ccccc2)cc1
16,4.1 min,Cc1ccc(S(=O)(=O)Nc2cnccc2C(=O)Nc2nc3ccccc3s2)cc1
17,> 30 min,Cc1cc(N=Nc2ccc(S(=O)(=O)Nc3ccccn3)cc2)c(N)cc1O
18,4.6 min,Cc1ccc(S(=O)(=O)Nc2cc(F)c(F)cc2C(=O)Nc2nc(-c3ccccc3)cs2)cc1
19,1.47 min,Fc1ccccc1CNCc1ccc(-c2ccnc3[nH]ccc23)cc1
20,> 30 min,CN(C)c1ccc(-c2cc[nH]c(=O)c2N)cc1
21,> 30 min,COc1ccc(-c2c(-c3cc(C(=O)O)ccn3)ncn2C)cc1
22,1.44 min,CN(Cc1cccs1)c1ncnc2ccc(-c3ccc4c(c3)OCO4)cc12
